# Like-named read-outs stand apart in the source and are kept apart here.
# What was measured:
# [1] = system: cardiomyocytes differentiated from induced pluripotent stem cells; assay: acute toxicity on electrophysiology, MEA beat period and field potential duration (Example 23); assay type: cell-based; conditions: at least 20 minutes; for acute drug toxicity on beating: higher concentrations; for difference in beat period or field potential duration vs control samples: lower drug concentration
# Protocol: Samples were either mock-treated with 0.1% DMSO, or treated with increasing concentrations of the indicated drug for at least 20 minutes. Cardiomyocytes were treated with the hERG potassium channel blocker E4031 as a control. Following treatment, the beat period and field potential duration (FPD) were measured in each sample using the MEA.
# [2] = system: Cardiomyocytes (human iPSC-derived); assay: doxorubicin-induced apoptosis, CellEvent dye, 3 days (Example 4); assay type: cell-based; conditions: Cardiomyocyte, 72 h, co-treated with 1 μM of doxorubicin, read-out: IC50 for protective effects against apoptosis
# Protocol: Cardiomyocytes were prepared as described above. […] Following treatment, the samples were incubated with a CellEvent dye to indicate apoptosis-positive cells, and a second dye to identify cell nuclei.
# [3] = target: T1, TOPOIIα (Homo sapiens, UniProt P11388); assay: kDNA decatenation assay, TOPOIIα; assay type: biochemical; conditions: for TOPOIIα inhibition, in words: decatenation assay;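 for all read-outs here: kDNA incubated with one unit of TOPOIIα at 37 °C for 30 min, decatenated product resolved on 1% agarose gel, inhibition from relative band intensity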
# T1 construct: purchased Inspiralis
# [4] = target: T2, TOPOIIβ (Homo sapiens, UniProt Q02880); assay: kDNA decatenation assay, TOPOIIβ; assay type: biochemical; conditions: for TOPOIIβ inhibition, in words: decatenation assay;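 for all read-outs here: kinetoplast DNA incubated with one unit of TOPOIIβ at 37 °C for 30 min, decatenated product resolved on 1% agarose gel, inhibition scored from relative band intensity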
# T2 construct: purchased Inspiralis
# [5] = system: Doxorubicin treated human iPSC-derived cardiomyocytes; assay: iPSC-CM protection by myricetin analogs (Table 1); assay type: cell-based; conditions: for EC50 / Emax: Homo sapiens, iPSC-CM; for EC50: read-out: iPSC-CM protection EC50; for cardioprotection, in words: Table 1
# [6] = system: cardiomyocytes; assay: cytotoxicity of myricetin analogs to cardiomyocytes (Table 1, Toxicity); conditions: for cytotoxicity, in words: at 100 μM where stated; for Toxicity: * = cytotoxicity at 100 μM
# [7] = system: cardiomyocytes differentiated from induced pluripotent stem cells; assay: long term toxicity on electrophysiology, active electrodes (Example 24); assay type: cell-based
# Protocol: Samples were either mock-treated with 0.1% DMSO, or treated with various concentrations of the indicated drug. Following treatment, the percentage of active electrodes in each sample was measured for at least 5 days. Percentage of active electrodes was quantified and graphed in a time course.
# [8] = target: topoisomerase IIβ (Homo sapiens, UniProt Q02880); conditions: 100 μM, 24 hours, iPSC-CMs
# [9] = system: A549 cells; assay: doxorubicin-mediated death of lung cancer cells, CellTiter-Glo (Example 22); assay type: cell-based; conditions: co-treated with increasing concentrations of doxorubicin, 72 hours
# Protocol: A549 cells (lung cancer) were cultured for 1 day before performing experiments. […] XLFit was used for curve fitting.
# [10] = system: MDA-MB-231 cells; conditions: co-treated with increasing concentrations of doxorubicin, 72 hours
# [11] = read-out: iPSC-CM protection Max Effect (%)
# T1 sequence (P11388 whole entry): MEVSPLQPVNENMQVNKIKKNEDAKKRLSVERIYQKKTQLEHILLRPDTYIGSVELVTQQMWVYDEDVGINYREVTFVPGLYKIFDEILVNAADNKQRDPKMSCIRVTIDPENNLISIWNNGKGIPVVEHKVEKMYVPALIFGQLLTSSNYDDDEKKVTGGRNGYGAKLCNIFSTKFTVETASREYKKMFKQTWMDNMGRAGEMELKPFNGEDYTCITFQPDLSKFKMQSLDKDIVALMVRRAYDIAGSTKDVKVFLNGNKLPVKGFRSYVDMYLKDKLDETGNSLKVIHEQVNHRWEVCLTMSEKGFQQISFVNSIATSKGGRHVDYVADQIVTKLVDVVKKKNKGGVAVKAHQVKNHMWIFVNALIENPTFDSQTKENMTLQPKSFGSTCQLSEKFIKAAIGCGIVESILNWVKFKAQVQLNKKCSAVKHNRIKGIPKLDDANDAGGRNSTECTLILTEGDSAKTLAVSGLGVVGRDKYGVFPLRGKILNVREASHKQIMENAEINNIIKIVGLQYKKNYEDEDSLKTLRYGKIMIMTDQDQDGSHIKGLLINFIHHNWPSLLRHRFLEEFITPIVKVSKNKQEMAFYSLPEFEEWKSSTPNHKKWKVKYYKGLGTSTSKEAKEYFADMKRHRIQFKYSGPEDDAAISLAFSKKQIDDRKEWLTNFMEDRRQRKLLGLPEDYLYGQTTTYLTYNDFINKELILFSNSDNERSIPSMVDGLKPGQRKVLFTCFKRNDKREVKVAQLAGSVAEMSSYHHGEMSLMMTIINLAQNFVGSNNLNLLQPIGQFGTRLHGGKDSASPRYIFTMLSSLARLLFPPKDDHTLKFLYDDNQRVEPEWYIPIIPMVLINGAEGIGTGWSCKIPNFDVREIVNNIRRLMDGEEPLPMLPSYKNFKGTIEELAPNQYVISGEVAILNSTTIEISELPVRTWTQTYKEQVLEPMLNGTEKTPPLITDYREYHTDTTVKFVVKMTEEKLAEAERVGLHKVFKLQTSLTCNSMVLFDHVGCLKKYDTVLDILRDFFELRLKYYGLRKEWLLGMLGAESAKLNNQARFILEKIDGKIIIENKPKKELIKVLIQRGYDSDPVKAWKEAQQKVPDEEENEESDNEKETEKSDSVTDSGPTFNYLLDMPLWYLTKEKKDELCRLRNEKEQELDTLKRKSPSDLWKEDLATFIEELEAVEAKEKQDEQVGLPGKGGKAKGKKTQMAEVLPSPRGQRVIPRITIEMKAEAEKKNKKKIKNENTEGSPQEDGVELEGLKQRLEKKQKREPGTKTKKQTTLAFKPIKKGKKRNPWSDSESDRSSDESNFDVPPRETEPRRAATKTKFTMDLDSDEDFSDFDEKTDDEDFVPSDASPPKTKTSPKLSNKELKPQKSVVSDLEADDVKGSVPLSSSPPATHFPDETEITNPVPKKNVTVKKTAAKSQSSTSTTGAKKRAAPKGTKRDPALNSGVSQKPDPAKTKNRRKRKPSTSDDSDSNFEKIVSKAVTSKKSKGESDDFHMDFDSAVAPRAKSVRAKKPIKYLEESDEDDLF
# T2 sequence (Q02880 whole entry): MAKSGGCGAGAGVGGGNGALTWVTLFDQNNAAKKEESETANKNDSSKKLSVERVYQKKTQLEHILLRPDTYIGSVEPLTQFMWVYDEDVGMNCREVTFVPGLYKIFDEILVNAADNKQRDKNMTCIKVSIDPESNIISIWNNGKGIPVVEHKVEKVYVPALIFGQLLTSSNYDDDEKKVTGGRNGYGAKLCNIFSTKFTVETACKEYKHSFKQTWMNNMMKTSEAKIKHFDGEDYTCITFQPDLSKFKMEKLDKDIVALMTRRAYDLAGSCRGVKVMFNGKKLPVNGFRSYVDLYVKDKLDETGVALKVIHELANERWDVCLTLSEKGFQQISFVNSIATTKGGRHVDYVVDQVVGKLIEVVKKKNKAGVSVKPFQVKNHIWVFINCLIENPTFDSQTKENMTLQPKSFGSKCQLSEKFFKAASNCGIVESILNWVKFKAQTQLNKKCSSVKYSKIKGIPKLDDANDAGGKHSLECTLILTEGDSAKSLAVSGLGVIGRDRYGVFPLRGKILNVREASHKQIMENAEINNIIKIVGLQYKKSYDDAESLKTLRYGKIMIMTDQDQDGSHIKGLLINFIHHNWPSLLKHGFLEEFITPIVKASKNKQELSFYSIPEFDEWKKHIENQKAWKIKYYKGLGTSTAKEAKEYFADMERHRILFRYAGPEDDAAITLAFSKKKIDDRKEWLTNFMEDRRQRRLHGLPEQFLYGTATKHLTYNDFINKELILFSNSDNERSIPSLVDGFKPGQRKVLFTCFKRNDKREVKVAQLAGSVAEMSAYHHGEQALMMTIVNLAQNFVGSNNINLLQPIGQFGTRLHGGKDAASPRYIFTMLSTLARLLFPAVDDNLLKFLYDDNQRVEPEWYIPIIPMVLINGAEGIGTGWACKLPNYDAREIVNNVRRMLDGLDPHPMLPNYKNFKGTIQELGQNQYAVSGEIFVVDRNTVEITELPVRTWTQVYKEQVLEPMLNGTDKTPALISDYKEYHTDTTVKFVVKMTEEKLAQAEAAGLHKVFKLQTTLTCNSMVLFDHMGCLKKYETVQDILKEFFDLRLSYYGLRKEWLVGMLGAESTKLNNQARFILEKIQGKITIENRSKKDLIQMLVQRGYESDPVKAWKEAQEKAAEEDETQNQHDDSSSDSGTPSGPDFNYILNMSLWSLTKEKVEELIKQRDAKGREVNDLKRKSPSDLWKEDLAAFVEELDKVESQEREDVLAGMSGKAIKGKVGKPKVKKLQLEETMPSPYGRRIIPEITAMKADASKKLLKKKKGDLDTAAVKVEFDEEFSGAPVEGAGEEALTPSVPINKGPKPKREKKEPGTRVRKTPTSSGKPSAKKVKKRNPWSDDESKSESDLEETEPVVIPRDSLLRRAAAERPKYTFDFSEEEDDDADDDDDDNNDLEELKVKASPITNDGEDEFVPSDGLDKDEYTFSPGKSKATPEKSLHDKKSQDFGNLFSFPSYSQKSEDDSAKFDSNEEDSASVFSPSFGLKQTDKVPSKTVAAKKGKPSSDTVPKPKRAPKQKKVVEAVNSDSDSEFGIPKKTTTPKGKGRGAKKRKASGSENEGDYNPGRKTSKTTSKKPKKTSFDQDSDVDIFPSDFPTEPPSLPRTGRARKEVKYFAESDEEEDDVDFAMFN
# Chain of topoisomerase IIβ (Q02880 whole entry): as above
compound,measurement,setting,value
C[C@H](CCC(=O)O)[C@H]1CC[C@H]2[C@@H]3[C@H](O)C[C@@H]4C[C@H](O)CC[C@]4(C)[C@H]3CC[C@]12C [chenodeoxycholic acid],acute drug toxicity on beating,[1],beating cessation
same,difference in beat period or field potential duration vs control samples,[1],no appreciable difference
C[C@@H]1O[C@@H](Oc2c(-c3cc(O)c(O)c(O)c3)oc3cc(O)cc(O)c3c2=O)[C@H](O)[C@H](O)[C@H]1O [myricitrin],IC50,[2],38.5 µM
O=C1C[C@@H](c2ccc(O)cc2)Oc2cc(O)cc(O)c21 [naringenin],acute drug toxicity on beating,[1],beating cessation
same,difference in beat period or field potential duration vs control samples,[1],no appreciable difference
"O=c1c(O)c(-c2ccc(O)cc2)oc2cc(O)ccc12 [Compound 10, 3,7,4′-trihydroxyflavone]",TOPIIα Inhibition,[3],−
same,TOPIIβ Inhibition,[4],−
same,Rescue,[5],+
same,EC50,[5],3.26 µM
same,Emax,[5]; [11],27%
same,toxic effects at concentrations less than 100 μM,[6]; Table 1,exhibited toxic effects
CC(=O)N(O)CCCCCNC(=O)CCC(=O)N(O)CCCCCNC(=O)CCC(=O)N(O)CCCCCN [deferoxamine],difference in beat period or field potential duration vs control samples,[1],no appreciable difference
C[C@@H](CN1CC(=O)NC(=O)C1)N1CC(=O)NC(=O)C1 [dexrazoxane],reduction in the number of active electrodes,"[7]; 167 μM dexrazoxane, about 2 days post-treatment",~25%
same,reduction in the number of active electrodes,"[7]; 167 μM dexrazoxane, about 3 days post-treatment",~50%
same,reduction in the number of active electrodes,"[7]; 500 μM dexrazoxane, about 2 days post-treatment",~50%
same,reduction in the number of active electrodes,"[7]; 500 μM dexrazoxane, about 3 days post-treatment",~100%
same,difference in beat period or field potential duration vs control samples,[1],no appreciable difference
same,topoisomerase IIβ protein levels,[8],marked disappearance of TOPOIIβ
same,difference in the percentage of cell death vs doxorubicin without protective agent,[9],no significant difference
same,difference in the percentage of cell death vs doxorubicin without protective agent,[10],no significant difference
"O=c1ccoc2cc(O)ccc12 [Compound 7-hydroxy-4-chromone, 7-hydroxy-4-chromone]","TOPOIIα inhibition, in words",[3],Nor did either compound confer TOPOIIβ or a inhibition
same,"TOPOIIβ inhibition, in words",[4],Nor did either compound confer TOPOIIβ or a inhibition
same,"cardioprotection, in words",[5],no positive effect
same,"cytotoxicity, in words",[6]; Table 1,high level of cytotoxicity
"O=c1c(O)c(-c2ccccc2)oc2cc(O)cc(O)c12 [3,5,7-trihydroxyflavone]","TOPOIIα inhibition, in words",[3],neither cardioprotection nor TOPOII inhibition
same,"TOPOIIβ inhibition, in words",[4],neither cardioprotection nor TOPOII inhibition
same,"cardioprotection, in words",[5],neither cardioprotection nor TOPOII inhibition
same,"cytotoxicity, in words",[6]; Table 1,generalized cytotoxicity
"O=c1c(O)c(-c2ccc(O)c(O)c2)oc2cc(O)cc(O)c12 [Compound 4, 3,5,7,3′,4′-pentahydroxyflavone]","TOPOIIα inhibition, in words",[3],exhibited TOPOII inhibition
same,"TOPOIIβ inhibition, in words",[4],exhibited TOPOII inhibition
same,EC50,[5],20.5 µM
same,Emax,[5]; [11],58%
same,"cardioprotection, in words",[5],conferred cardioprotection
same,"cytotoxicity, in words",[6]; Table 1,high level of general cytoxicity
"O=c1cc(-c2cc(O)c(O)c(O)c2)oc2cc(O)ccc12 [Compound 6, 7,3′4′,5′-tetrahydroxyflavone]",TOPIIα Inhibition,[3],−
same,"TOPOIIα inhibition, in words",[3],did not inhibit TOPOII enzymes
same,TOPIIβ Inhibition,[4],−
same,"TOPOIIβ inhibition, in words",[4],did not inhibit TOPOII enzymes
same,EC50,[5],17.1 µM
same,Emax,[5]; [11],71%
same,"cardioprotection, in words",[5],displayed cardioprotection
same,Toxicity,[6],−
"O=c1ccoc2ccccc12 [Compound 29, chromone]",Rescue,[5],−
same,Emax,"[5]; initial screen at 10 μM or 100 μM, read-out: iPSC-CM protection Max Effect (%), class symbol",< 30%
same,Toxicity,[6],−
O=c1ccoc2ccccc12 [chromone],"TOPOIIα inhibition, in words",[3],Nor did either compound confer TOPOIIβ or a inhibition
same,"TOPOIIβ inhibition, in words",[4],Nor did either compound confer TOPOIIβ or a inhibition
same,"cardioprotection, in words",[5],no positive effect

# Reference: US11786503B2, “Pharmaceutical compositions and methods for countering chemotherapy induced cardiotoxicity” (Auransa Inc., priority 2016, dated 2023)
